Measured values published in ChEMBL document CHEMBL3885881, “DrugMatrix”.

Species on record: Rattus norvegicus
Experiment: DrugMatrix - Regimen: Daily Repeat
Type: toxicity, organism-based, Sprague-Dawley
Set-up: regimen Daily Repeat, gender Male, age 6-8 weeks
Details: in vivo, po, 44 mg/kg, route oral GAVAGE, dose level Low, vehicle 100 % WATER; for ABSOLUTE BASOPHIL / ABSOLUTE EOSINOPHIL / ABSOLUTE LYMPHOCYTE / ABSOLUTE MONOCYTE / ABSOLUTE SEGMENTED NEUTROPHIL / BASOPHIL / EOSINOPHIL / ERYTHROCYTE COUNT / HEMATOCRIT / HEMOGLOBIN / LEUKOCYTE COUNT / LYMPHOCYTE / MEAN CORPUSCULAR HEMOGLOBIN / MEAN CORPUSCULAR HEMOGLOBIN CONCENTRATION / MEAN CORPUSCULAR VOLUME / MONOCYTE / NEUTROPHIL / NUCLEATED RED BLOOD CELLS / PLATELET COUNT: tissue Blood; for ALANINE AMINOTRANSFERASE / ALBUMIN / ALKALINE PHOSPHATASE / ASPARTATE AMINOTRANSFERASE / BLOOD UREA NITROGEN / CARBON DIOXIDE / CHLORIDE / CHOLESTEROL / CREATINE PHOSPHOKINASE / CREATININE / GLUCOSE / LACTATE DEHYDROGENASE / LIPASE / PHOSPHORUS / POTASSIUM / SODIUM / TOTAL BILIRUBIN / TOTAL PROTEIN / URIC ACID: tissue Plasma

Question: How did the “ABSOLUTE BASOPHIL” value (72 h, time 3 day) turn out when `Cn1c(=O)c2c(ncn2CC2OCCO2)n(C)c1=O` [DOXOFYLLINE] was run?
Answer: The value was 0 CELLS/uL.

Question: And the “ABSOLUTE EOSINOPHIL” value (72 h, time 3 day)?
Answer: Its value is 159 CELLS/uL.

Question: And the “ABSOLUTE LYMPHOCYTE” value (72 h, time 3 day)?
Answer: The value was 15168.33 CELLS/uL.

Question: What about the “ABSOLUTE MONOCYTE” value (72 h, time 3 day) of the same compound?
Answer: Its value is 106 CELLS/uL.

Question: And the “ABSOLUTE SEGMENTED NEUTROPHIL” value (72 h, time 3 day)?
Answer: Its value is 1466.67 CELLS/uL.

Question: What about the BASOPHIL (72 h, time 3 day) of the same compound?
Answer: Its BASOPHIL is 0%.

Question: What about the EOSINOPHIL (72 h, time 3 day) of the same compound?
Answer: Its EOSINOPHIL is 1%.

Question: What about the “ERYTHROCYTE COUNT” value (72 h, time 3 day) of the same compound?
Answer: Its value is 5.65 x10E6/uL.

Question: And the HEMATOCRIT (72 h, time 3 day)?
Answer: Its HEMATOCRIT is 36.33%.

Question: And the HEMOGLOBIN (72 h, time 3 day)?
Answer: The HEMOGLOBIN was 13.93 G/DL.

Question: And the “LEUKOCYTE COUNT” value (72 h, time 3 day)?
Answer: Its value is 16.9 x10E3/uL.

Question: What about the LYMPHOCYTE (72 h, time 3 day) of the same compound?
Answer: Its LYMPHOCYTE is 89.67%.

Question: And the “MEAN CORPUSCULAR HEMOGLOBIN” value (72 h, time 3 day)?
Answer: Its value is 24.67 pg.

Question: And the “MEAN CORPUSCULAR HEMOGLOBIN CONCENTRATION” value (72 h, time 3 day)?
Answer: Its value is 38.37 G/DL.

Question: What about the “MEAN CORPUSCULAR VOLUME” value (72 h, time 3 day) of the same compound?
Answer: The value was 64.23 fL.

Question: And the MONOCYTE (72 h, time 3 day)?
Answer: The MONOCYTE was 0.67%.

Question: And the NEUTROPHIL (72 h, time 3 day)?
Answer: The NEUTROPHIL was 8.67%.

Question: What about the “NUCLEATED RED BLOOD CELLS” value (72 h, time 3 day) of the same compound?
Answer: The value was 0 /100WBC.

Question: What about the “PLATELET COUNT” value (72 h, time 3 day) of the same compound?
Answer: Its value is 1263 x10E3/uL.

Question: What about the “ALANINE AMINOTRANSFERASE” value (72 h, time 3 day) of the same compound?
Answer: Its value is 51.33 u/L.

Question: What about the ALBUMIN (72 h, time 3 day) of the same compound?
Answer: Its ALBUMIN is 4.3 G/DL.

Question: And the “ALKALINE PHOSPHATASE” value (72 h, time 3 day)?
Answer: Its value is 393.67 u/L.

Question: What about the “ASPARTATE AMINOTRANSFERASE” value (72 h, time 3 day) of the same compound?
Answer: The value was 90.67 u/L.

Question: What about the “BLOOD UREA NITROGEN” value (72 h, time 3 day) of the same compound?
Answer: Its value is 15.67 mg/dL.

Question: What about the “CARBON DIOXIDE” value (72 h, time 3 day) of the same compound?
Answer: The value was 27 mmol/L.

Question: What about the CHLORIDE (72 h, time 3 day) of the same compound?
Answer: The CHLORIDE was 100.33 MEQ/L.

Question: And the CHOLESTEROL (72 h, time 3 day)?
Answer: Its CHOLESTEROL is 80.67 mg/dL.

Question: What about the “CREATINE PHOSPHOKINASE” value (72 h, time 3 day) of the same compound?
Answer: The value was 250.67 u/L.

Question: What about the CREATININE (72 h, time 3 day) of the same compound?
Answer: The CREATININE was 0.19 mg/dL.

Question: And the GLUCOSE (72 h, time 3 day)?
Answer: The GLUCOSE was 159.33 mg/dL.

Question: And the “LACTATE DEHYDROGENASE” value (72 h, time 3 day)?
Answer: The value was 324 u/L.

Question: And the LIPASE (72 h, time 3 day)?
Answer: The LIPASE was 9.67 u/L.

Question: What about the PHOSPHORUS (72 h, time 3 day) of the same compound?
Answer: Its PHOSPHORUS is 14.4 mg/dL.

Question: And the POTASSIUM (72 h, time 3 day)?
Answer: Its POTASSIUM is 7.21 MEQ/L.

Question: And the SODIUM (72 h, time 3 day)?
Answer: Its SODIUM is 145.63 MEQ/L.

Question: And the “TOTAL BILIRUBIN” value (72 h, time 3 day)?
Answer: The value was 0.17 mg/dL.

Question: And the “TOTAL PROTEIN” value (72 h, time 3 day)?
Answer: Its value is 5.9 G/DL.

Question: And the “URIC ACID” value (72 h, time 3 day)?
Answer: Its value is 1.83 mg/dL.

Question: What about the “ABSOLUTE BASOPHIL” value (120 h, time 5 day) of the same compound?
Answer: Its value is 0 CELLS/uL.

Question: And the “ABSOLUTE EOSINOPHIL” value (120 h, time 5 day)?
Answer: The value was 0 CELLS/uL.

Question: What about the “ABSOLUTE LYMPHOCYTE” value (120 h, time 5 day) of the same compound?
Answer: Its value is 14176.33 CELLS/uL.

Question: And the “ABSOLUTE MONOCYTE” value (120 h, time 5 day)?
Answer: The value was 62.33 CELLS/uL.

Question: What about the “ABSOLUTE SEGMENTED NEUTROPHIL” value (120 h, time 5 day) of the same compound?
Answer: Its value is 1228 CELLS/uL.

Question: What about the BASOPHIL (120 h, time 5 day) of the same compound?
Answer: The BASOPHIL was 0%.

Question: What about the EOSINOPHIL (120 h, time 5 day) of the same compound?
Answer: The EOSINOPHIL was 0%.

Question: What about the “ERYTHROCYTE COUNT” value (120 h, time 5 day) of the same compound?
Answer: Its value is 5.56 x10E6/uL.

Question: And the HEMATOCRIT (120 h, time 5 day)?
Answer: The HEMATOCRIT was 36.17%.

Question: What about the HEMOGLOBIN (120 h, time 5 day) of the same compound?
Answer: The HEMOGLOBIN was 14.13 G/DL.

Question: And the “LEUKOCYTE COUNT” value (120 h, time 5 day)?
Answer: Its value is 15.47 x10E3/uL.

Question: What about the LYMPHOCYTE (120 h, time 5 day) of the same compound?
Answer: The LYMPHOCYTE was 92.33%.

Question: What about the “MEAN CORPUSCULAR HEMOGLOBIN” value (120 h, time 5 day) of the same compound?
Answer: The value was 25.5 pg.

Question: What about the “MEAN CORPUSCULAR HEMOGLOBIN CONCENTRATION” value (120 h, time 5 day) of the same compound?
Answer: The value was 39.1 G/DL.

Question: And the “MEAN CORPUSCULAR VOLUME” value (120 h, time 5 day)?
Answer: Its value is 65.23 fL.

Question: And the MONOCYTE (120 h, time 5 day)?
Answer: Its MONOCYTE is 0.33%.

Question: And the NEUTROPHIL (120 h, time 5 day)?
Answer: Its NEUTROPHIL is 7.33%.

Question: What about the “NUCLEATED RED BLOOD CELLS” value (120 h, time 5 day) of the same compound?
Answer: The value was 0 /100WBC.

Question: What about the “PLATELET COUNT” value (120 h, time 5 day) of the same compound?
Answer: The value was 1347.67 x10E3/uL.

Question: And the “ALANINE AMINOTRANSFERASE” value (120 h, time 5 day)?
Answer: Its value is 51 u/L.

Question: And the ALBUMIN (120 h, time 5 day)?
Answer: Its ALBUMIN is 4.17 G/DL.

Question: What about the “ALKALINE PHOSPHATASE” value (120 h, time 5 day) of the same compound?
Answer: Its value is 318.33 u/L.

Question: What about the “ASPARTATE AMINOTRANSFERASE” value (120 h, time 5 day) of the same compound?
Answer: Its value is 80 u/L.

Question: And the “BLOOD UREA NITROGEN” value (120 h, time 5 day)?
Answer: Its value is 17.33 mg/dL.

Question: What about the “CARBON DIOXIDE” value (120 h, time 5 day) of the same compound?
Answer: Its value is 29 mmol/L.

Question: What about the CHLORIDE (120 h, time 5 day) of the same compound?
Answer: Its CHLORIDE is 100 MEQ/L.

Question: And the CHOLESTEROL (120 h, time 5 day)?
Answer: The CHOLESTEROL was 75.33 mg/dL.

Question: What about the “CREATINE PHOSPHOKINASE” value (120 h, time 5 day) of the same compound?
Answer: The value was 240 u/L.

Question: And the CREATININE (120 h, time 5 day)?
Answer: Its CREATININE is 0.17 mg/dL.

Question: What about the GLUCOSE (120 h, time 5 day) of the same compound?
Answer: The GLUCOSE was 165.33 mg/dL.

Question: And the “LACTATE DEHYDROGENASE” value (120 h, time 5 day)?
Answer: The value was 290 u/L.

Question: What about the LIPASE (120 h, time 5 day) of the same compound?
Answer: The LIPASE was 9.67 u/L.

Question: What about the PHOSPHORUS (120 h, time 5 day) of the same compound?
Answer: The PHOSPHORUS was 12.97 mg/dL.

Question: What about the POTASSIUM (120 h, time 5 day) of the same compound?
Answer: The POTASSIUM was 6.07 MEQ/L.

Question: What about the SODIUM (120 h, time 5 day) of the same compound?
Answer: Its SODIUM is 146.03 MEQ/L.

Question: And the “TOTAL BILIRUBIN” value (120 h, time 5 day)?
Answer: Its value is 0.17 mg/dL.

Question: And the “TOTAL PROTEIN” value (120 h, time 5 day)?
Answer: Its value is 6.07 G/DL.

Question: And the “URIC ACID” value (120 h, time 5 day)?
Answer: Its value is 1.5 mg/dL.
